Test results taken from ChEMBL document CHEMBL1153484, “Design, synthesis and evaluation of N-[(3S)-pyrrolidin-3-yl]benzamides as selective noradrenaline reuptake inhibitors: CNS penetration in a more polar template” (Bioorg Med Chem Lett, 2009).

Tests used:
[1] = target: Sodium-dependent noradrenaline transporter (Homo sapiens, UniProt P23975); test: Displacement of [3H]nisoxetine from human recombinant NET expressed in HEK293 cells by scintillation proximity assay; type: cell-based
[2] = Intrinsic clearance in human liver microsomes; type: ADME, Microsome
[3] = target: Sodium-dependent dopamine transporter (Homo sapiens, UniProt Q01959); test: Displacement of radioligand from human recombinant DAT expressed in HEK293 cells by scintillation proximity assay; type: cell-based
Chain of Sodium-dependent dopamine transporter (Q01959 whole entry): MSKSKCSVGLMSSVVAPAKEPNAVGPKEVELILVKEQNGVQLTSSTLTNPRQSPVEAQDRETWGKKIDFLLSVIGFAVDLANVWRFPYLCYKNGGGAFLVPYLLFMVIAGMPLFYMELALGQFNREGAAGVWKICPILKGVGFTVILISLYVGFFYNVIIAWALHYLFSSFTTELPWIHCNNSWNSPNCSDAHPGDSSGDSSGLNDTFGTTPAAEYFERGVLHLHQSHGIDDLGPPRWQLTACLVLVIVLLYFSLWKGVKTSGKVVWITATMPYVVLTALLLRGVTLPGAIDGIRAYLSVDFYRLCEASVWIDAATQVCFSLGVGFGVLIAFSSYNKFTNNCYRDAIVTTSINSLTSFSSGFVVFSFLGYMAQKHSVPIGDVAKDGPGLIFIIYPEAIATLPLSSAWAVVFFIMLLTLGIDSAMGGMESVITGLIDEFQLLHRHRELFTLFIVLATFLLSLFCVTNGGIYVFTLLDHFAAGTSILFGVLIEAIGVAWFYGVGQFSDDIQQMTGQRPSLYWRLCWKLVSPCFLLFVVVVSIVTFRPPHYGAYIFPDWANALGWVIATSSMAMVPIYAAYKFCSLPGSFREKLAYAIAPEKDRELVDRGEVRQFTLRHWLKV

[4] = target: Sodium-dependent serotonin transporter (Homo sapiens, UniProt P31645); test: Displacement of [3H]citalopram from human recombinant SERT expressed in HEK293 cells by scintillation proximity assay; type: cell-based
Chain of Sodium-dependent serotonin transporter (P31645 whole entry): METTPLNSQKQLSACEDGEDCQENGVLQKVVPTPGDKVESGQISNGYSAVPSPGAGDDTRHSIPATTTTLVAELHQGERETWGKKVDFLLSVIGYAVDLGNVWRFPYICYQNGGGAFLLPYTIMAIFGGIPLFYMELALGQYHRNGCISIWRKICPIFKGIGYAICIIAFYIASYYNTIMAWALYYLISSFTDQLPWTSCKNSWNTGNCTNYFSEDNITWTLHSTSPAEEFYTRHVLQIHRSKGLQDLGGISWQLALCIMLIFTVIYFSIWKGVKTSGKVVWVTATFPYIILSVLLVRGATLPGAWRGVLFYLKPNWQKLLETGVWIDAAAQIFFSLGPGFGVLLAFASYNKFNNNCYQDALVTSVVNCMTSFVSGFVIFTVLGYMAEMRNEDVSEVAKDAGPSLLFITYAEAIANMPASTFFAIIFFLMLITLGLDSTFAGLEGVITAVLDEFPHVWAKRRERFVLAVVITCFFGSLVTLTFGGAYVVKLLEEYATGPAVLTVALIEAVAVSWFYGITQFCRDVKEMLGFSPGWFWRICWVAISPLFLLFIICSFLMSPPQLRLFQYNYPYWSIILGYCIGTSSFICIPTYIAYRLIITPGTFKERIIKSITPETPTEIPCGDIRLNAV

[5] = target: Voltage-gated inwardly rectifying potassium channel KCNH2 (Homo sapiens, UniProt Q12809); test: Displacement of [3H]dofetilide from human ERG
Chain of Voltage-gated inwardly rectifying potassium channel KCNH2 (Q12809 whole entry): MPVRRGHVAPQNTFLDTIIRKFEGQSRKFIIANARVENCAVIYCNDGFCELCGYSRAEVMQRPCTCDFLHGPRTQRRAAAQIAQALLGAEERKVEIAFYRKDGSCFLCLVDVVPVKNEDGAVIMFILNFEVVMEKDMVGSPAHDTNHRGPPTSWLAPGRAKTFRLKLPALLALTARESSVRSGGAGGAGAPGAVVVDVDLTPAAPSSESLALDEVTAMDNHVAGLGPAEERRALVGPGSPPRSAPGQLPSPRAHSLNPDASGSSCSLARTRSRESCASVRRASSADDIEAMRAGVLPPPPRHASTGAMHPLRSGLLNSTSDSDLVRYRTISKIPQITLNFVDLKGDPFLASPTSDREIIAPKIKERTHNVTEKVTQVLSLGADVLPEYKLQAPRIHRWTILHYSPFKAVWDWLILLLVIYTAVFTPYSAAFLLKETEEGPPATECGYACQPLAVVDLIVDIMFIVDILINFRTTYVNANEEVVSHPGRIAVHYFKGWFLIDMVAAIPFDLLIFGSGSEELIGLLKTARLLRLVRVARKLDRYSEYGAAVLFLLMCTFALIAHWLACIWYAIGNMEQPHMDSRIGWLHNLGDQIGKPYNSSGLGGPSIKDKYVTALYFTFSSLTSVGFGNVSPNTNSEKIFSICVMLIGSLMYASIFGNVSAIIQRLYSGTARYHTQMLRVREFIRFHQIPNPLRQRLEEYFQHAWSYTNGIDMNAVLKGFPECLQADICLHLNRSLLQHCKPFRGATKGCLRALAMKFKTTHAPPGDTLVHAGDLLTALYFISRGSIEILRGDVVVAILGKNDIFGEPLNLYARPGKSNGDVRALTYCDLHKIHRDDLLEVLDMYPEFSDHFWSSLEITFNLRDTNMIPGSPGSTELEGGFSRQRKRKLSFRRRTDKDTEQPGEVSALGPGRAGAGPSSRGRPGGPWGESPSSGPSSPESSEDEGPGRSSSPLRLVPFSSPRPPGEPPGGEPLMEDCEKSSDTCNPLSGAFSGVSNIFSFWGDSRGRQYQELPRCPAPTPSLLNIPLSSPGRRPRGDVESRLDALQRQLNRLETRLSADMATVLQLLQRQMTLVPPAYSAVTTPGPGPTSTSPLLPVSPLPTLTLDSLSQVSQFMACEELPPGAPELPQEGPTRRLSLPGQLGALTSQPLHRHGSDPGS

Cytochrome P450 2D6 = Cytochrome P450 2D6 (Homo sapiens, UniProt P10635); test: Inhibition of CYP2D6; type: ADME
Chain of Cytochrome P450 2D6 (P10635 whole entry): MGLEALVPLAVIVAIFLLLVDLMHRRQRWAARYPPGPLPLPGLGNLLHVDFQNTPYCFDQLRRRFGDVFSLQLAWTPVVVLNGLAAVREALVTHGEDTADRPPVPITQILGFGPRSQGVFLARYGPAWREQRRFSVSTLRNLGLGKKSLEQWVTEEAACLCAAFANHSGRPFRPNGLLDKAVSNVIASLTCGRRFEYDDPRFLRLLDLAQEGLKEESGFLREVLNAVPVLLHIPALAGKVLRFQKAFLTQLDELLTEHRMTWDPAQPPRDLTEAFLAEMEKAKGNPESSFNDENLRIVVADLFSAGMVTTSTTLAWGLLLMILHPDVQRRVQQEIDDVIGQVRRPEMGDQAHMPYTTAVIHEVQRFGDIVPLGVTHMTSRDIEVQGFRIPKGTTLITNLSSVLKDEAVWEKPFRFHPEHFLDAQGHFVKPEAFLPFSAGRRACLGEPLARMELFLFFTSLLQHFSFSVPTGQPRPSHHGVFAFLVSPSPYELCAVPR

Chain of Sodium-dependent noradrenaline transporter (P23975 whole entry): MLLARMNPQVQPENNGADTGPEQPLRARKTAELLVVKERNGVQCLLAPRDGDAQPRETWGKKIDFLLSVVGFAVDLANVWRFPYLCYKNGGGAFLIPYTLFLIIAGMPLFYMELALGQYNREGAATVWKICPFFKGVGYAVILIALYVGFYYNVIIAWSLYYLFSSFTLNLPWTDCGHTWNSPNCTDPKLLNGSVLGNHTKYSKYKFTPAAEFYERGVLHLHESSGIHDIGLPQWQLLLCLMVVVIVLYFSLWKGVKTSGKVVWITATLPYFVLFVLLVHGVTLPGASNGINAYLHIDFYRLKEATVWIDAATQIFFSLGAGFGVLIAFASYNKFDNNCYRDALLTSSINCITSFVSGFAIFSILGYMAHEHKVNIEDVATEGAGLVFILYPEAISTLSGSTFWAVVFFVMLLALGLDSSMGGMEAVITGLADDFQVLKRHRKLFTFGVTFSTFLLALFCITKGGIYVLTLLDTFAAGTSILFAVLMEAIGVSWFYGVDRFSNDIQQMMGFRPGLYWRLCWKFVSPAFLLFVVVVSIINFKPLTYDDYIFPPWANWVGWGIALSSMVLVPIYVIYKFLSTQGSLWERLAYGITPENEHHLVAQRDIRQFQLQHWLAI

| Ki [1] [nM] | microsomal CLint [2] [µL/min/mg] | Ki [3] [nM] | Ki [4] [nM] | IC50 (Cytochrome P450 2D6) [nM] | Structure (SMILES) | IC50 [5] [nM] |
| --- | --- | --- | --- | --- | --- | --- |
| 18 | 60 | 3720 | 802 | – | O=C(c1ccccc1C1CCCC1)N(CC1CCC1)[C@H]1CCNC1 | – |
| 7 | < 7 | > 10000 | 151 | 65 | O=C(c1ccccc1Oc1ccccc1)N(CC1CCC1)[C@H]1CCNC1 | 760 |
| 9 | – | 4770 | 36 | – | CSc1ccccc1C(=O)N(C1CCCC1)[C@H]1CCNC1 | > 18700 |
| 572 | – | 3470 | 1080 | – | CSc1ccccc1C(=O)N(CC1CCC1)[C@@H]1CCNC1 | – |
| 92 | – | > 10000 | 5210 | – | CCCN(C(=O)c1ccccc1C(C)C)[C@H]1CCNC1 | – |
| 19 | – | 1360 | 39 | – | O=C(c1ccccc1Cl)N(CC1CCC1)[C@H]1CCNC1 | – |
| 31 | – | > 10000 | 2870 | – | CC(C)c1ccccc1C(=O)N(CC1CC1)[C@H]1CCNC1 | > 17600 |
| 37 | – | 3110 | 1090 | – | CCCN(C(=O)c1ccccc1SC)[C@H]1CCNC1 | > 20000 |
| 72 | – | 2340 | 118 | – | Cc1ccccc1C(=O)N(CC1CCC1)[C@H]1CCNC1 | > 20000 |
| 29 | – | 2680 | 237 | – | CCc1ccccc1C(=O)N(CC1CCC1)[C@H]1CCNC1 | – |
| – | < 7 | – | – | – | CCOC(=O)N(Cc1ccccc1-c1ccccc1)[C@H]1CCNC1 | – |
| 10 | < 9 | 2040 | 857 | 3170 | CC(C)c1ccccc1C(=O)N(CC1CCC1)[C@H]1CCNC1 | > 18200 |
| 13 | < 7 | > 10000 | 222 | – | O=C(c1ccccc1Oc1ccccc1)N(C1CCC1)[C@H]1CCNC1 | – |
| – | < 7 | – | – | – | CNCc1cnc(C)cc1Oc1ccccc1Oc1ccccc1 | 11200 |
| 16 | < 7 | > 10000 | 62 | > 30000 | CSc1ccccc1C(=O)N(C1CCC1)[C@H]1CCNC1 | > 20000 |
| 18 | – | 3470 | 330 | – | CC(C)c1ccccc1C(=O)N(CC1CCCC1)[C@H]1CCNC1 | 2350 |
| 9 | < 7 | 3570 | 1610 | > 30000 | CCN(C(=O)c1ccccc1Oc1ccccc1)[C@H]1CCNC1 | 5030 |
| 172 | – | > 10000 | 457 | – | CC(C)N(C(=O)c1ccccc1C(F)(F)F)[C@H]1CCNC1 | > 20000 |

| Ki [1] [nM] | microsomal CLint [2] [µL/min/mg] | Ki [3] [nM] | Ki [4] [nM] | IC50 (Cytochrome P450 2D6) [nM] | Structure (SMILES) | IC50 [5] [nM] |
| --- | --- | --- | --- | --- | --- | --- |
| 1120 | – | 3960 | 1650 | – | O=C(c1ccccc1C(F)(F)F)N(CC1CCC1)[C@@H]1CCNC1 | – |
| 22 | < 7 | 2650 | 348 | – | CCOc1ccccc1C(=O)N(CC1CCC1)[C@H]1CCNC1 | > 16800 |
| – | – | – | – | – | CC(C)C(=O)N(Cc1ccccc1-c1ccccc1)[C@H]1CCNC1 | 3020 |
| 60 | < 7 | > 10000 | 210 | – | O=C(c1ccccc1C(F)(F)F)N(C1CCC1)[C@H]1CCNC1 | > 10000 |
| 294 | – | > 10000 | 654 | – | CC(C)CN(C(=O)c1ccccc1-c1ccccc1)[C@H]1CCNC1 | 1440 |
| 43 | – | > 10000 | 776 | – | CC(C)c1ccccc1C(=O)N(C1CCC1)[C@H]1CCNC1 | – |
| 32 | – | > 10000 | 663 | – | CC(C)c1ccccc1C(=O)N(C1CCCC1)[C@H]1CCNC1 | – |
| – | – | 2950 | 16 | – | CSc1ccccc1C(=O)N(C1CCCCC1)[C@H]1CCNC1 | 2270 |
| 24 | < 7 | 2750 | 109 | – | O=C(c1ccccc1C(F)(F)F)N(CC1CCCC1)[C@H]1CCNC1 | > 13500 |
| 8 | < 7 | > 10000 | 160 | – | CC(C)CN(C(=O)c1ccccc1Oc1ccccc1)[C@H]1CCNC1 | – |
| 38 | < 8 | 4100 | 587 | – | O=C(c1ccccc1Oc1ccccc1)N(CC1CCC1)[C@@H]1CCNC1 | – |
| 6 | 8 | 3670 | 266 | 480 | CCSc1ccccc1C(=O)N(CC1CCC1)[C@H]1CCNC1 | 7570 |
| 825 | – | > 3160 | 1990 | – | CC(C)c1ccccc1C(=O)N(CC1CCC1)[C@@H]1CCNC1 | – |
| – | < 7 | 4650 | 68 | – | O=C(c1ccccc1Oc1ccccc1)N(c1ccccc1)[C@H]1CCNC1 | – |
| 8 | < 7 | 3040 | 179 | – | CSc1ccccc1C(=O)N(CC1CCC1)[C@H]1CCNC1 | > 20000 |
| 30 | – | > 10000 | 581 | – | O=C(c1ccccc1C(F)(F)F)N(CC1CC1)[C@H]1CCNC1 | > 20000 |
| 61 | – | > 3160 | 661 | – | CN(C(=O)c1ccccc1Oc1ccccc1)[C@H]1CCNC1 | 9210 |
| 148 | < 7 | > 10000 | 187 | – | O=C(C1CCC1)N(Cc1ccccc1C(F)(F)F)[C@H]1CCNC1 | – |

| Structure (SMILES) | Ki [1] [nM] | microsomal CLint [2] [µL/min/mg] | Ki [3] [nM] | Ki [4] [nM] | IC50 (Cytochrome P450 2D6) [nM] | IC50 [5] [nM] |
| --- | --- | --- | --- | --- | --- | --- |
| O=C(c1ccccc1C(F)(F)F)N(c1ccccc1)[C@H]1CCNC1 | 28 | < 7 | 3130 | 113 | > 3000 | > 20000 |
| CSc1ccccc1C(=O)N(c1ccccc1)[C@H]1CCNC1 | 19 | – | 3440 | 64 | – | > 20000 |
